Results from PMC8286840, “Identifying SARS-CoV-2 antiviral compounds by screening for small molecule inhibitors of Nsp3 papain-like protease” (Biochemical Journal, 2021).
Structures can show the parent of a compound that is named as a salt. Where two headings read alike, the source gives them in different places.

Key:
[1] = molecular target: T1, SARS-CoV-2 PLpro (nsp3 1564–1878) (Severe acute respiratory syndrome coronavirus 2, UniProt P0DTD1); test: biochemical; set-up: FRET-quenched peptide (Pro3) cleavage by PLpro, 10 min pre-incubation, slope over 20 min, normalised to no-compound control; settings: low concentration screen
[2] = molecular target: T1, SARS-CoV-2 PLpro (nsp3 1564–1878); test: biochemical; set-up: FRET-quenched peptide (Pro3) cleavage by PLpro, 10 min pre-incubation, slope over 20 min, normalised to no-compound control; settings: high concentration screen
[3] = Well no.=8235, read-out: % of control remaining
[4] = Well no.=177, read-out: % of control remaining
[5] = Well no.=2302, read-out: % of control remaining
[6] = Well no.=6333, read-out: % of control remaining
[7] = Well no.=5267, read-out: % of control remaining
[8] = Well no.=3789, read-out: % of control remaining
[9] = Well no.=3517, read-out: % of control remaining
[10] = Well no.=7982, read-out: % of control remaining
[11] = Well no.=273, read-out: % of control remaining
[12] = Well no.=8068, read-out: % of control remaining
[13] = Well no.=5026, read-out: % of control remaining
[14] = Well no.=6621, read-out: % of control remaining
[15] = Well no.=125, read-out: % of control remaining
[16] = Well no.=77, read-out: % of control remaining
[17] = Well no.=7091, read-out: % of control remaining
[18] = Well no.=5651, read-out: % of control remaining
[19] = read-out: % of control remaining, Well no.=271
[20] = read-out: % of control remaining, Well no.=2171
[21] = read-out: % of control remaining, Well no.=6566
[22] = Well no.=6849, read-out: % of control remaining
[23] = Well no.=175, read-out: % of control remaining
[24] = Well no.=1735, read-out: % of control remaining
[25] = Well no.=6177, read-out: % of control remaining
[26] = Well no.=7565, read-out: % of control remaining
[27] = Well no.=322, read-out: % of control remaining
[28] = Well no.=3835, read-out: % of control remaining
[29] = Well no.=3089, read-out: % of control remaining
[30] = Well no.=6646, read-out: % of control remaining
[31] = Well no.=1814, read-out: % of control remaining
[32] = Well no.=1660, read-out: % of control remaining
[33] = Well no.=5197, read-out: % of control remaining
[34] = Well no.=1860, read-out: % of control remaining
[35] = Well no.=5916, read-out: % of control remaining
[36] = Well no.=2173, read-out: % of control remaining
[37] = Well no.=6188, read-out: % of control remaining
[38] = Well no.=7013, read-out: % of control remaining
[39] = Well no.=3091, read-out: % of control remaining

CN1[C@@H]2CC[C@H]1C[C@@H](OC(c1ccccc1)c1ccccc1)C2 [Benztropine (mesylate)]
remaining activity at 1.25 µM [1, 3]: 100%
remaining activity at 3.75 µM [2, 3]: 99.9%

CN1[C@@H]2CC[C@H]1C[C@@H](OC(c1ccccc1)c1ccccc1)C2 [Benztropine mesylate]
remaining activity at 1.25 µM [1, 4]: 104%
remaining activity at 3.75 µM [2, 4]: 104%

CN(C)CCCOc1nn(Cc2ccccc2)c2ccccc12 [Benzydamine]
remaining activity at 1.25 µM [1, 5]: 95.4%
remaining activity at 3.75 µM [2, 5]: 96.1%

O=C(O)CCCN1CCC(O[C@@H](c2ccc(Cl)cc2)c2ccccn2)CC1 [Bepotastine (Beslilate)]
remaining activity at 1.25 µM [1, 6]: 97.3%
remaining activity at 3.75 µM [2, 6]: 93.3%

O=C(O)CCCN1CCC(O[C@@H](c2ccc(Cl)cc2)c2ccccn2)CC1 [Bepotastine Besilate]
remaining activity at 1.25 µM [1, 7]: 91.9%
remaining activity at 3.75 µM [2, 7]: 91.2%

COc1c2ccoc2cc2oc(=O)ccc12 [Bergapten]
remaining activity at 1.25 µM [1, 8]: 92.7%
remaining activity at 3.75 µM [2, 8]: 87%

COc1c(O)cc2c(c1O)[C@@H]1O[C@H](CO)[C@@H](O)[C@H](O)[C@H]1OC2=O [Bergenin]
remaining activity at 1.25 µM [1, 9]: 103%
remaining activity at 3.75 µM [2, 9]: 107%

O=S(=O)(O)c1cc(O)c2c(N=Nc3c(S(=O)(=O)O)cc4cc(S(=O)(=O)O)cc(O)c4c3O)cc(S(=O)(=O)O)cc2c1 [Beryllon II]
remaining activity at 1.25 µM [1, 10]: 92.8%
remaining activity at 3.75 µM [2, 10]: 93.7%

CC(C)C[C@H](NC(=O)[C@@H](O)[C@H](N)Cc1ccccc1)C(=O)O [Bestatin hydrochloride]
remaining activity at 1.25 µM [1, 11]: 96.2%
remaining activity at 3.75 µM [2, 11]: 97.1%

CC(C)C[C@H](NC(=O)[C@@H](O)[C@H](N)Cc1ccccc1)C(=O)O [Bestatin]
remaining activity at 1.25 µM [1, 12]: 98.5%
remaining activity at 3.75 µM [2, 12]: 97.8%

CNCCc1ccccn1 [Betahistine 2HCl]
remaining activity at 1.25 µM [1, 13]: 97.2%
remaining activity at 3.75 µM [2, 13]: 98.9%

CNCCc1ccccn1 [Betahistine (dihydrochloride)]
remaining activity at 1.25 µM [1, 14]: 98.5%
remaining activity at 3.75 µM [2, 14]: 92.4%

C[N+](C)(C)CC=O [Betaine aldehyde chloride]
remaining activity at 1.25 µM [1, 15]: 96.6%
remaining activity at 3.75 µM [2, 15]: 102%

C[N+](C)(C)CC(=O)O [Betaine hydrochloride]
remaining activity at 1.25 µM [1, 16]: 101%
remaining activity at 3.75 µM [2, 16]: 103%

CCC(=O)OCC(=O)[C@@]1(OC(=O)CC)[C@@H](C)C[C@H]2[C@@H]3CCC4=CC(=O)C=C[C@]4(C)[C@@]3(F)[C@@H](O)C[C@@]21C [Betamethasone dipropionate]
remaining activity at 1.25 µM [1, 17]: 93.4%
remaining activity at 3.75 µM [2, 17]: 98.8%

CCCCC(=O)O[C@]1(C(=O)CO)[C@@H](C)C[C@H]2[C@@H]3CCC4=CC(=O)C=C[C@]4(C)[C@@]3(F)[C@@H](O)C[C@@]21C [Betamethasone valerate]
remaining activity at 1.25 µM [1, 18]: 94.9%
remaining activity at 3.75 µM [2, 18]: 97.2%

C[C@H]1C[C@H]2[C@@H]3CCC4=CC(=O)C=C[C@]4(C)[C@@]3(F)[C@@H](O)C[C@]2(C)[C@@]1(O)C(=O)CO [Betamethasone]
remaining activity at 1.25 µM [1, 19]: 97.7%
remaining activity at 1.25 µM [1, 20]: 93.5%
remaining activity at 1.25 µM [1, 21]: 94.8%
remaining activity at 3.75 µM [2, 19]: 95.6%
remaining activity at 3.75 µM [2, 20]: 93.7%
remaining activity at 3.75 µM [2, 21]: 95.4%

CC(C)NCC(O)COc1ccc(CCOCC2CC2)cc1 (centres unmarked) [Betaxolol (hydrochloride)]
remaining activity at 1.25 µM [1, 22]: 107%
remaining activity at 3.75 µM [2, 22]: 102%

CC(C)NCC(O)COc1ccc(CCOCC2CC2)cc1 (centres unmarked) [Betaxolol hydrochloride]
remaining activity at 1.25 µM [1, 23]: 102%
remaining activity at 3.75 µM [2, 23]: 101%

CC(C)NCC(O)COc1ccc(CCOCC2CC2)cc1 (centres unmarked) [Betaxolol.HCl]
remaining activity at 1.25 µM [1, 24]: 99.1%
remaining activity at 3.75 µM [2, 24]: 99.8%

CC(C)NCC(O)COc1ccc(CCOCC2CC2)cc1 (centres unmarked) [Betaxolol]
remaining activity at 1.25 µM [1, 25]: 104%
remaining activity at 3.75 µM [2, 25]: 97.1%

CC(C[N+](C)(C)C)OC(N)=O (centres unmarked) [Bethanechol (chloride)]
remaining activity at 1.25 µM [1, 26]: 99.8%
remaining activity at 3.75 µM [2, 26]: 92.1%

CC(C[N+](C)(C)C)OC(N)=O (centres unmarked) [Bethanechol chloride]
remaining activity at 1.25 µM [1, 27]: 102%
remaining activity at 3.75 µM [2, 27]: 102%

C=C(C)[C@@H]1CC[C@]2(CO)CC[C@]3(C)[C@H](CC[C@@H]4[C@@]5(C)CC[C@H](O)C(C)(C)[C@@H]5CC[C@]43C)[C@@H]12 [Betulin]
remaining activity at 1.25 µM [1, 28]: 103%
remaining activity at 3.75 µM [2, 28]: 101%

C=C(C)[C@@H]1CC[C@]2(C(=O)O)CC[C@]3(C)[C@H](CC[C@@H]4[C@@]5(C)CC[C@H](O)C(C)(C)[C@@H]5CC[C@]43C)[C@@H]12 [Betulinic acid]
remaining activity at 1.25 µM [1, 29]: 102%
remaining activity at 1.25 µM [1, 30]: 105%
remaining activity at 3.75 µM [2, 29]: 101%
remaining activity at 3.75 µM [2, 30]: 100%

C=C(c1ccc(C(=O)O)cc1)c1cc2c(cc1C)C(C)(C)CCC2(C)C [Bexarotene]
remaining activity at 1.25 µM [1, 31]: 93.1%
remaining activity at 3.75 µM [2, 31]: 94.9%

CC(C)(Oc1ccc(CCNC(=O)c2ccc(Cl)cc2)cc1)C(=O)O [Bezafibrate]
remaining activity at 1.25 µM [1, 32]: 98.3%
remaining activity at 3.75 µM [2, 32]: 97.5%

C[C@@H](O)[C@H]1C(=O)N2C(C(=O)[O-])=C(SC3Cn4cnc[n+]4C3)[C@H](C)[C@H]12 (some centres unmarked) [Biapenem]
remaining activity at 1.25 µM [1, 33]: 99.1%
remaining activity at 3.75 µM [2, 33]: 100%

CC(O)(CS(=O)(=O)c1ccc(F)cc1)C(=O)Nc1ccc(C#N)c(C(F)(F)F)c1 (centres unmarked) [Bicalutamide]
remaining activity at 1.25 µM [1, 34]: 97.5%
remaining activity at 3.75 µM [2, 34]: 99.2%

COC(=O)c1cc(OC)c2c(c1-c1c(CO)cc(OC)c3c1OCO3)OCO2 [Bicyclol]
remaining activity at 1.25 µM [1, 35]: 107%
remaining activity at 3.75 µM [2, 35]: 100%

c1ccc(-c2ccc(C(c3ccccc3)n3ccnc3)cc2)cc1 (centres unmarked) [Bifonazole]
remaining activity at 1.25 µM [1, 36]: 99.6%
remaining activity at 3.75 µM [2, 36]: 101%

CCOCCn1c(C2CCN(CCc3ccc(C(C)(C)C(=O)O)cc3)CC2)nc2ccccc21 [Bilastine]
remaining activity at 1.25 µM [1, 37]: 101%
remaining activity at 3.75 µM [2, 37]: 100%

C=CC1=C(C)/C(=C/c2[nH]c(Cc3[nH]c(/C=C4\NC(=O)C(C)=C4C=C)c(C)c3CCC(=O)O)c(CCC(=O)O)c2C)NC1=O [Bilirubin]
remaining activity at 1.25 µM [1, 38]: 103%
remaining activity at 3.75 µM [2, 38]: 104%

CC(C)(C)[C@]1(O)C[C@@H]2OC(=O)C[C@@]23C(=O)O[C@@H]2OC(=O)[C@H](O)[C@]213 [Bilobalide]
remaining activity at 1.25 µM [1, 39]: 105%
remaining activity at 3.75 µM [2, 39]: 105%
